In patent US20260191954A1, “COMPOSITIONS AND METHODS FOR NEOADJUVANT TREATMENT IN CANCER” (INNATE PHARMA, priority 2022, published 2026):

Tests used:
H1703 tumor cell line = assay: ATP release from squamous NSCLC H1703 tumor cells after chemotherapy (CellTiter-Glo); format: cell-based; settings: culture supernatant, FIG. 2
Procedure: This experiment aimed as studying ATP release from squamous NSCLC tumor cells following chemotherapy treatment. The squamous NSCLC H1703 tumor cell line was incubated separately with different chemotherapies. The measurement of ATP release was performed 24 h after Cisplatin treatment, 72 h after Carboplatin, 60 h after Oxaliplatin, 48 h after Pemetrexed, 48 h after Gemcitabine, 72 h after 5-FU, 24 h after Paclitaxel and 40 h after Docetaxel. Extracellular ATP release in the culture supernatant was measured with a luminescent-based assay (CellTiter-Glo®) and expressed in Luminescence Arbitrary Unit (AU). Means+/−SD.
Result are shown in FIG. 2, showing ATP release from H1703 tumor cell line (sqNSCLC) following the treatment with different chemotherapies, cisplatin, carboplatin, oxaliplatin, pemetrexed, gemcitabine, 5-Fu, paclitaxel and docetaxel.

[1] = target: T1, recombinant human CD39 protein (huCD39) (Homo sapiens, UniProt P49961); assay: eATP release by H1703 (CD39-) cells incubated with recombinant huCD39, with or without IPH5201, then docetaxel; format: cell-based; settings: H1703 (CD39-) cells; docetaxel 0.1 μM; 40 h; FIG. 3A
T1 sequence (P49961 38-478 limits assumed): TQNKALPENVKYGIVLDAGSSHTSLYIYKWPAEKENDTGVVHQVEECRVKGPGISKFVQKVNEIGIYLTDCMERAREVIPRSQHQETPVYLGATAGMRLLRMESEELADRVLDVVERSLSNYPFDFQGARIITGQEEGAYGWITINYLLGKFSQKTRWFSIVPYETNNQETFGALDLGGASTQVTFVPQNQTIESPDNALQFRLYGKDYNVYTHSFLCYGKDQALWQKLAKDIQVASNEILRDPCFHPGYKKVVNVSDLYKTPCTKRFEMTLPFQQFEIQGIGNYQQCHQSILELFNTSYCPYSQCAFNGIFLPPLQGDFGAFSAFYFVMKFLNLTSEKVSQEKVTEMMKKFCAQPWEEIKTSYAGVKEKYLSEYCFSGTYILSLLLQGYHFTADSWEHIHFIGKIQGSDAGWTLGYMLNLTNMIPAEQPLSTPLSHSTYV
Procedure: H1703 (CD39−) cells were incubated with recombinant human CD39 protein (huCD39) (400 ng/ml) to mimic soluble CD39 in tumor microenvironment with or without IPH5201 (humanized anti-CD39 antibody having the respective heavy and light chain amino acid sequences of SEQ ID NOS: 10 and 11) at 10 μg/mL and then treated with docetaxel (0.1 μM). The measure of extracellular ATP (eATP) release was performed 40 h after docetaxel treatment.
(§1) OAW42 (CD39+) cells were incubated with 10 or 50 μg/mL of IPH5201 and treated with a dose range of docetaxel. The measure of eATP release was performed 30 h after docetaxel treatment. eATP was measured in the cell culture supernatant with a luminescent-based assay (CellTiter-Glo®) and expressed in Luminescence Arbitrary Unit (AU). Means+/−SD.

OAW42 (CD39+) cells = assay: eATP release in OAW42 (CD39+) cells with IPH5201 and docetaxel; format: cell-based; settings: docetaxel dose range, 30 h, FIG. 3B
Procedure: as §1

[2] = Phase 1 study of IPH5201 +/- durvalumab in advanced solid tumours: safety; format: in vivo; settings: of 19 patients given IPH5201+durvalumab (1500 mg Q3W)
Procedure: A first-in-human, multicentre, non-randomised, open-label, phase 1 study was conducted in order to assess the safety, efficacy, pharmacokinetics (PK) and pharmacodynamics (PD) of IPH5201±durvalumab (Imfinzi™) in patients with advanced solid tumours. The study consisted of two consecutive dose-escalation parts: • Part 1: Ascending doses of IPH5201 (100, 300, 1000 and 3000 mg) every 3 weeks (Q3W). • Part 2: Ascending doses of IPH5201 (300, 1000 and 3000 mg) and 1500 mg durvalumab Q3W.
PD cohorts enrolled patients with advanced squamous cell lung carcinoma or advanced pancreatic ductal adenocarcinoma in the top two dose levels of Parts 1 and 2. Primary endpoints were safety and tolerability. Key secondary endpoints included preliminary antitumour activity measured by objective response and disease control per RECIST v1.1, PK and immunogenicity. Exploratory endpoints included efficacy measured by duration of response and progression-free survival (PFS) per RECIST v1.1, overall survival and assessment of biomarkers.
Key inclusion criteria were: • Adults aged ≥18 years. • Histologically or cytologically confirmed advanced solid tumours. • At least one measurable lesion per RECIST v1.1. • Refractoriness to standard therapy or disease for which no standard therapy exists. • Eastern Cooperative Oncology Group Performance Status of 0 or 1. • Archival or fresh tumour sample. • Key exclusion criteria were: • Previous treatment with any agents targeting CD73, CD39, or adenosine receptors. • Treatment with any conventional or investigational anticancer therapy within 21 days of the first planned dose. • Active or prior autoimmune or inflammatory disorders within the past 5 years. • Cardiac and vascular criteria including presence of acute coronary syndrome or thromboembolic events within 6 months prior to enrolment, congestive heart failure, serious cardiac arrhythmia requiring medication, or uncontrolled hypertension. • Untreated metastases to the central nervous system.
Overall, 57 patients received treatment (IPH5201, n=38; IPH5201+durvalumab, n=19). […] Treatment-emergent adverse events (TEAEs) occurred in 96.5% of patients; 40.4% had grade ≥3 TEAEs. […] Treatment-related adverse events (TRAEs) occurred in 66.7% of patients (37/57 (64.9%) related to IPH5201; 11/19 (57.9%) related to durvalumab). […] The most common TRAEs were infusion-related reactions (21.1%), fatigue (17.5%), nausea, arthralgia, tumour pain and pruritus (8.8% each). […] Maximum tolerated dose (MTD) was not reached.

MC38 cancer cell line = assay: MC38 tumor growth in huCD39KI mice (gemcitabine +/- anti-PD-L1 +/- molPH5201); format: in vivo, human CD39 knock-in (huCD39KI) mice; settings: for tumor growth compared to the control: p<0.001
Procedure: In vivo experiments were performed in human CD39 knock-in (huCD39KI) mice, genetically modified to express human CD39 in place of its murine counterpart mouse CD39. These mice were sub-cutaneously (s.c.) engrafted with the MC38 cancer cell line. Mice bearing established tumors were dosed with isotype control (IC) antibodies, anti-human CD39 antibody (molPH5201, described above), gemcitabine chemotherapy and anti-mouse PD-L1 antibody (an antibody that binds murine PD-L1 having an Fc domain with amino acid substitutions to eliminate binding to mouse Fcγ receptors.
Male and female huCD39KI mice were engrafted subcutaneously (s.c.) with 1×10^6 MC38 cancer cells. Treatments were initiated after mouse randomization. Mice were treated twice a week for two weeks with gemcitabine (25 mg/kg) or PBS (at day 8, 11, 15 and 18 after cell engraftment) and once a week for four weeks with either anti-human CD39 antibody (molPH5201) or the corresponding isotype control (IC) antibody (400 μg/mouse).
Randomization of mice into four groups was performed on day 7 post tumor cell engraftment, at a mean tumor volume of 72 mm^3±27 mm^3 with individual tumor volumes comprised between 37 and 130 mm^3.
(§2) Male and female huCD39KI mice were engrafted s.c. with 1×10^6 MC38. Treatments were initiated after mouse randomization. Mice were treated twice a week for two weeks with gemcitabine (25 mg/kg) or PBS, twice a week for three weeks with either anti-mouse PD-L1 antibody or the corresponding IC antibody (200 μg/mouse) and once a week for four or five weeks depending on the experiment with either anti-human CD39 antibody (molPH5201) or the corresponding IC antibody (400 μg/mouse). Mouse randomization into five groups was performed on day 7 post tumor cell engraftment at a mean tumor volume of 62 mm^3±23 mm^3 with individual tumor volumes comprised between 31 and 117 mm^3.
as §2, with “As in Experiment 1, male” for “Male”, “64” for “62”, “115” for “117”
as §2, with “As in Experiments 1 and 2, male” for “Male”, “engraftment,” for “engraftment”, “74 mm^3±21” for “62 mm^3±23”, “40” for “31”, “121” for “117”
The three experiments were pooled and results are shown in FIG. 9, showing Tumor growth of MC38 tumor in huCD39KI mice post treatment with gemcitabine+/−anti-PD-L1+/−molPH5201. MC38 tumor-bearing huCD39KI mice were randomized on day 7 and then treated as indicated with 25 mg/kg ip of gemcitabine or PBS, 200 μg ip of anti-mouse PD-L1 antibody or corresponding isotype control antibody and with 400 μg iv of molPH5201 or corresponding IC antibody. Graphs show tumor growth in each individual (n=31/group). CR: Complete Response.

With `N.N.O=C([O-])C1(C(=O)[O-])CCC1.[Pt+2]` [carboplatin] as the molecule, how does the ATP release (H1703 tumor cell line; 72 h after Carboplatin) read?
Its ATP release is “induced significant ATP release”.

Which “extracellular ATP (eATP) release” value [1] does the source give for `CC(=O)O[C@@]12CO[C@@H]1C[C@H](O)[C@@]1(C)C(=O)[C@H](O)C3=C(C)[C@@H](OC(=O)[C@H](O)[C@@H](NC(=O)OC(C)(C)C)c4ccccc4)C[C@@](O)([C@@H](OC(=O)c4ccccc4)[C@H]21)C3(C)C` [docetaxel, reference compound] here?
Its value is “induced strong release of eATP”.

And the ATP release (H1703 tumor cell line; 40 h after Docetaxel)?
Its ATP release is “induced significant ATP release”.

And the eATP release (OAW42 (CD39+) cells)?
The eATP release was “at best a modest release of eATP”.

With `N.N.[Cl][Pt][Cl]` [cisplatin] as the molecule, how does the ATP release (H1703 tumor cell line; 24 h after Cisplatin treatment) read?
Its ATP release is “induced significant ATP release”.

Which ATP release (H1703 tumor cell line; 60 h after Oxaliplatin) does the source give for `O=C1[O][Pt]2([NH][C@@H]3CCCC[C@H]3[NH]2)[O]C1=O` [oxaliplatin] here?
The ATP release was “induced significant ATP release”.

With `Nc1nc2[nH]cc(CCc3ccc(C(=O)N[C@@H](CCC(=O)O)C(=O)O)cc3)c2c(=O)[nH]1` [pemetrexed] as the molecule, how does the ATP release (H1703 tumor cell line; 48 h after Pemetrexed) read?
Its ATP release is “induced significant ATP release”.

With `CC(=O)O[C@H]1C(=O)[C@@]2(C)[C@H]([C@H](OC(=O)c3ccccc3)[C@]3(O)C[C@H](OC(=O)[C@H](O)[C@@H](NC(=O)c4ccccc4)c4ccccc4)C(C)=C1C3(C)C)[C@]1(OC(C)=O)CO[C@@H]1C[C@@H]2O` [paclitaxel] as the molecule, how does the ATP release (H1703 tumor cell line; 24 h after Paclitaxel) read?
Its ATP release is “induced significant ATP release”.

Which “patients with TRAEs related to durvalumab” value [2] does the source give for durvalumab [reference compound] here?
The value was 57.9%.

And the “patients with TRAEs related to durvalumab, count” value [2]?
Its value is 11/19.

What does the source list for `Nc1ccn([C@@H]2O[C@H](CO)[C@@H](O)C2(F)F)c(=O)n1` [gemcitabine, reference compound]?
tumor growth compared to the control (MC38 cancer cell line; Experiment 1 (FIG. 6)): significantly slowed down tumor growth; tumor growth compared to the control (MC38 cancer cell line; Experiment 2 (FIG. 7)): significantly slowed down tumor growth; tumor growth compared to the control (MC38 cancer cell line; Experiment 3 (FIG. 8)): significantly inhibited tumor growth; tumor growth compared to the control group (MC38 cancer cell line; gemcitabine +/- molPH5201 experiment (FIG. 5), gemcitabine 25 mg/kg, molPH5201 400 μg/mouse, p<0.001 where significant): drastically and significantly slowed down tumor growth; ATP release (H1703 tumor cell line; 48 h after Gemcitabine): induced significant ATP release

With `O=c1[nH]cc(F)c(=O)[nH]1` [5-Fu, 5-FU] as the molecule, how does the ATP release (H1703 tumor cell line; 72 h after 5-FU) read?
Its ATP release is “induced significant ATP release”.
